Laboratory results published in PubChem BioAssay (NCI).
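Cultured in 96-well plates, cells were exposed to test compound for 48 hours across five concentrations. TGI marks complete inhibition of growth.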

Tests used:
Assay in all cases: NCI tumour cell line growth inhibition, 48 h
786-0 renal = system: 786-0 renal
A498 renal = system: A498 renal
A549 NSCLC = system: A549 NSCLC
ACHN renal = system: ACHN renal
BT-549 breast = system: BT-549 breast
CAKI-1 renal = system: CAKI-1 renal
EKVX NSCLC = system: EKVX NSCLC
HCC-2998 colon = system: HCC-2998 colon
HCT-116 colon = system: HCT-116 colon
HCT-15 colon = system: HCT-15 colon
HL-60(TB) leukemia = system: HL-60(TB) leukemia
HOP-62 NSCLC = system: HOP-62 NSCLC
HOP-92 NSCLC = system: HOP-92 NSCLC
HS 578T breast = system: HS 578T breast
HT29 colon = system: HT29 colon
IGROV1 ovarian = system: IGROV1 ovarian
K-562 leukemia = system: K-562 leukemia
KM12 colon = system: KM12 colon
LOX IMVI melanoma = system: LOX IMVI melanoma
M14 melanoma = system: M14 melanoma
MALME-3M melanoma = system: MALME-3M melanoma
MCF7 breast = system: MCF7 breast
MDA-MB-231 breast = system: MDA-MB-231 breast
MDA-MB-435 = system: MDA-MB-435
MDA-N = system: MDA-N
MOLT-4 leukemia = system: MOLT-4 leukemia
NCI-H226 lung = system: NCI-H226 lung
NCI-H23 lung = system: NCI-H23 lung
NCI-H460 lung = system: NCI-H460 lung
NCI-H522 lung = system: NCI-H522 lung
NCI/ADR-RES ovarian = system: NCI/ADR-RES ovarian
OVCAR-3 ovarian = system: OVCAR-3 ovarian
OVCAR-4 ovarian = system: OVCAR-4 ovarian
OVCAR-5 ovarian = system: OVCAR-5 ovarian
OVCAR-8 ovarian = system: OVCAR-8 ovarian
PC-3 prostate = system: PC-3 prostate
RPMI-8226 leukemia = system: RPMI-8226 leukemia
RXF 393 renal = system: RXF 393 renal
SF-268 CNS = system: SF-268 CNS
SF-295 CNS = system: SF-295 CNS
SF-539 CNS = system: SF-539 CNS
SK-MEL-2 melanoma = system: SK-MEL-2 melanoma
SK-MEL-28 melanoma = system: SK-MEL-28 melanoma
SK-MEL-5 melanoma = system: SK-MEL-5 melanoma
SK-OV-3 ovarian = system: SK-OV-3 ovarian
SN12C renal = system: SN12C renal
SNB-75 CNS = system: SNB-75 CNS
SR leukemia = system: SR leukemia
SW-620 colon = system: SW-620 colon
T-47D breast = system: T-47D breast
TK-10 renal = system: TK-10 renal
U251 CNS = system: U251 CNS
UACC-257 melanoma = system: UACC-257 melanoma
UACC-62 melanoma = system: UACC-62 melanoma
UO-31 renal = system: UO-31 renal
CCRF-CEM leukemia = system: CCRF-CEM leukemia
COLO 205 colon = system: COLO 205 colon
DU-145 prostate = system: DU-145 prostate
SNB-19 CNS = system: SNB-19 CNS

`CC(=O)c1ccc(NC(=O)/C(CC(=O)/C=C/c2ccccc2)=N/NC(N)=S)cc1` was tested, and the TGI (786-0 renal) was over 100 µM, the TGI (A498 renal) was over 100 µM and the TGI (A549 NSCLC) was over 100 µM. The TGI (ACHN renal) was over 100 µM, the TGI (BT-549 breast) was over 100 µM and the TGI (CAKI-1 renal) was over 100 µM. It also gave a TGI (EKVX NSCLC) of over 100 µM, a TGI (HCC-2998 colon) of over 100 µM and a TGI (HCT-116 colon) of over 100 µM. It also gave a TGI (HCT-15 colon) of over 100 µM, a TGI (HL-60(TB) leukemia) of over 100 µM and a TGI (HOP-62 NSCLC) of over 100 µM. It also gave a TGI (HOP-92 NSCLC) of over 100 µM, a TGI (HS 578T breast) of over 100 µM and a TGI (HT29 colon) of over 100 µM. The TGI (IGROV1 ovarian) was over 100 µM, the TGI (K-562 leukemia) was over 100 µM and the TGI (KM12 colon) was over 100 µM. The TGI (LOX IMVI melanoma) was over 100 µM, the TGI (M14 melanoma) was over 100 µM and the TGI (MALME-3M melanoma) was over 100 µM. It also gave a TGI (MCF7 breast) of over 100 µM, a TGI (MDA-MB-231 breast) of over 100 µM and a TGI (MDA-MB-435) of over 100 µM. The TGI (MDA-N) was over 100 µM, the TGI (MOLT-4 leukemia) was over 100 µM and the TGI (NCI-H226 lung) was over 100 µM. For the same compound, the TGI (NCI-H23 lung) was over 100 µM, the TGI (NCI-H460 lung) was over 100 µM and the TGI (NCI-H522 lung) was over 100 µM. For the same compound, the TGI (NCI/ADR-RES ovarian) was over 100 µM, the TGI (OVCAR-3 ovarian) was over 100 µM and the TGI (OVCAR-4 ovarian) was over 100 µM. It also gave a TGI (OVCAR-5 ovarian) of over 100 µM, a TGI (OVCAR-8 ovarian) of over 100 µM and a TGI (PC-3 prostate) of over 100 µM. It also gave a TGI (RPMI-8226 leukemia) of over 100 µM, a TGI (RXF 393 renal) of over 100 µM and a TGI (SF-268 CNS) of over 100 µM. It also gave a TGI (SF-295 CNS) of over 100 µM, a TGI (SF-539 CNS) of over 100 µM and a TGI (SK-MEL-2 melanoma) of over 100 µM. It also gave a TGI (SK-MEL-28 melanoma) of over 100 µM, a TGI (SK-MEL-5 melanoma) of over 100 µM and a TGI (SK-OV-3 ovarian) of over 100 µM. It also gave a TGI (SN12C renal) of over 100 µM, a TGI (SNB-75 CNS) of over 100 µM and a TGI (SR leukemia) of over 100 µM. For the same compound, the TGI (SW-620 colon) was over 100 µM, the TGI (T-47D breast) was over 100 µM and the TGI (TK-10 renal) was over 100 µM. For the same compound, the TGI (U251 CNS) was over 100 µM, the TGI (UACC-257 melanoma) was over 100 µM and the TGI (UACC-62 melanoma) was over 100 µM. The TGI (UO-31 renal) was over 100 µM.
`COC(=O)C1SC(N(C)c2ccccc2)=NC12c1ccccc1Nc1ccccc12` (stereo not drawn) was tested, and the TGI (786-0 renal) was 94 µM, the TGI (A498 renal) was 55.6 µM and the TGI (A549 NSCLC) was 87.8 µM. For the same compound, the TGI (ACHN renal) was over 100 µM, the TGI (BT-549 breast) was 45.1 µM and the TGI (CAKI-1 renal) was 74.6 µM. For the same compound, the TGI (CCRF-CEM leukemia) was 57.7 µM, the TGI (COLO 205 colon) was 30.7 µM and the TGI (DU-145 prostate) was over 100 µM. It also gave a TGI (EKVX NSCLC) of 66.3 µM, a TGI (HCC-2998 colon) of 42.4 µM and a TGI (HCT-116 colon) of 53.5 µM. It also gave a TGI (HCT-15 colon) of 49.3 µM, a TGI (HL-60(TB) leukemia) of 37.5 µM and a TGI (HOP-62 NSCLC) of over 100 µM. For the same compound, the TGI (HOP-92 NSCLC) was 59.4 µM, the TGI (HS 578T breast) was 53 µM and the TGI (HT29 colon) was 62.2 µM. It also gave a TGI (IGROV1 ovarian) of 53.1 µM, a TGI (K-562 leukemia) of 47.7 µM and a TGI (KM12 colon) of 66.7 µM. It also gave a TGI (LOX IMVI melanoma) of 50.8 µM, a TGI (M14 melanoma) of 38.7 µM and a TGI (MALME-3M melanoma) of 30.9 µM. The TGI (MCF7 breast) was 81.9 µM, the TGI (MDA-MB-435) was 40 µM and the TGI (MDA-N) was 57 µM. For the same compound, the TGI (MOLT-4 leukemia) was 28.4 µM, the TGI (NCI-H226 lung) was 51.5 µM and the TGI (NCI-H23 lung) was 35.9 µM. For the same compound, the TGI (NCI-H460 lung) was 27 µM, the TGI (NCI-H522 lung) was 38.5 µM and the TGI (NCI/ADR-RES ovarian) was 65.4 µM. For the same compound, the TGI (OVCAR-3 ovarian) was 34.1 µM, the TGI (OVCAR-4 ovarian) was 73.9 µM and the TGI (OVCAR-5 ovarian) was 55.2 µM. It also gave a TGI (OVCAR-8 ovarian) of 67.6 µM, a TGI (PC-3 prostate) of 53.9 µM and a TGI (RPMI-8226 leukemia) of 12 µM. For the same compound, the TGI (RXF 393 renal) was over 100 µM, the TGI (SF-268 CNS) was 72.5 µM and the TGI (SF-295 CNS) was 50.7 µM. It also gave a TGI (SF-539 CNS) of 38.6 µM, a TGI (SK-MEL-2 melanoma) of 31.7 µM and a TGI (SK-MEL-28 melanoma) of 45.8 µM. For the same compound, the TGI (SK-MEL-5 melanoma) was 26 µM, the TGI (SK-OV-3 ovarian) was over 100 µM and the TGI (SN12C renal) was 66.7 µM. For the same compound, the TGI (SNB-19 CNS) was 66.1 µM, the TGI (SNB-75 CNS) was 84.7 µM and the TGI (SR leukemia) was 43.3 µM. It also gave a TGI (SW-620 colon) of over 100 µM, a TGI (T-47D breast) of 50 µM and a TGI (TK-10 renal) of 72.5 µM. For the same compound, the TGI (U251 CNS) was 98.8 µM, the TGI (UACC-257 melanoma) was 64 µM and the TGI (UACC-62 melanoma) was 32 µM. It also gave a TGI (UO-31 renal) of 52.3 µM.
